Results from EPA's ToxRefDB 2.

Assays:
rabbit [1] = settings: Prenatal developmental toxicity study, new zealand white, Oral, Gavage/Intubation, dose end: 19 GD, group: maternal
rat [2] = settings: Sub-acute repeat dose toxicity, sprague dawley, Oral, Gavage/Intubation, dose end: 28 day
rat [3] = settings: Fertility (Segment I), sprague dawley, Oral, Gavage/Intubation, dose end: 7 GD
dog [4] = settings: Chronic toxicity; beagle; Oral; Gavage/Intubation; dose end: 6 month; group: systemic; systemic / in life observation / body weight / body weight + systemic / in life observation / clinical signs / pulse/pressure + systemic / …
rat [5] = settings: Chronic toxicity, sprague dawley, Oral, Gavage/Intubation, dose end: 6 month, group: systemic
rabbit [6] = settings: Prenatal developmental toxicity study; new zealand white; Oral; Gavage/Intubation; dose end: 19 GD; group: maternal; systemic / in life observation / body weight / body weight gain + systemic / in life observation / clinical signs / alopecia + systemic / in…
rat [7] = settings: Prenatal developmental toxicity study, sprague dawley, Oral, Gavage/Intubation, dose end: 17 GD
dog [8] = settings: Sub-acute repeat dose toxicity; beagle; Oral; Gavage/Intubation; dose end: 1 month; group: systemic; systemic / clinical chemistry / cholesterol / cholesterol + systemic / in life observation / body weight / body weight + systemic / in life …
rat [9] = settings: Fertility (Segment I), sprague dawley, Oral, Gavage/Intubation, dose end: 56 day
rat [10] = settings: Prenatal developmental toxicity study, sprague dawley, Oral, Gavage/Intubation, dose end: 17 GD; remark: listed apart in the source
rat [11] = settings: Fertility (Segment I), sprague dawley, Oral, Gavage/Intubation, dose end: 7 GD; remark: listed apart in the source
rat [12] = settings: Subchronic oral toxicity in rodents, fischer, Feed, dose end: 13 week, group: systemic
[13] = systemic / in life observation / body weight / body weight gain + systemic / in life observation / food consumption / food consumption
[14] = systemic / in life observation / body weight / body weight gain + systemic / in life observation / food consumption / food consumption + …
[15] = group: maternal, reproductive / reproductive performance / estrous cycle / abnormal
[16] = group: systemic, systemic / in life observation / clinical signs / excessive or spontaneous vocalization + systemic / organ weight / salivary glands / …
[17] = group: maternal, reproductive / offspring survival early / litter viability other / total litter loss + reproductive / reproductive performance / …
[18] = group: parental, systemic / in life observation / body weight / body weight gain + systemic / in life observation / clinical signs / abnormal motor movement…
[19] = systemic / clinical chemistry / alanine aminotransferase (alt/sgpt) / alanine aminotransferase (alt/sgpt) + systemic / clinical chemistry / …
[20] = systemic / in life observation / clinical signs / [other] + systemic / organ weight / uterus / absolute + systemic / organ weight / uterus…
[21] = group: developmental, developmental / developmental malformation / bone / incomplete ossification + systemic / in life observation / body weight / fetal weight
[22] = group: maternal, systemic / in life observation / body weight / body weight + systemic / in life observation / body weight / body weight gain + systemic / in…
[23] = group: maternal, reproductive / reproductive performance / estrous cycle / corpora lutea + reproductive / reproductive performance / implantations / …
[24] = group: parental, systemic / in life observation / body weight / body weight gain + systemic / in life observation / clinical signs / [other] + systemic / in …
[25] = group: developmental, systemic / in life observation / body weight / fetal weight
[26] = group: parental, systemic / in life observation / clinical signs / [other] + systemic / in life observation / body weight / body weight gain + systemic / in …
[27] = systemic / organ weight / kidney / nos + systemic / organ weight / liver / nos + systemic / pathology microscopic / liver / hypertrophy
[28] = systemic / organ weight / kidney / nos + systemic / organ weight / liver / nos + systemic / pathology microscopic / liver / hypertrophy + …

Question: What does the source list for `FC(F)(F)c1cccc(C2=CCN(CCc3ccc4ccncc4c3)CC2)c1`?
Answer: LEL (rabbit [1]; [13]): 0.01 mg/kg/day; NEL (rabbit [1]; [13]): < 0.01 mg/kg/day; LOAEL (rabbit [1]; [14]): > 0.05 mg/kg/day; NOAEL (rabbit [1]; [14]): ≥ 0.05 mg/kg/day; LEL (rat [2]; [15]): 1 mg/kg/day; LOAEL (rat [2]; [15]): > 7.5 mg/kg/day; NEL (rat [2]; [15]): 0.1 mg/kg/day; NOAEL (rat [2]; [15]): ≥ 7.5 mg/kg/day; LEL (rat [2]; [16]): 0.1 mg/kg/day; LOAEL (rat [2]; [16]): 0.1 mg/kg/day; NEL (rat [2]; [16]): < 0.1 mg/kg/day; NOAEL (rat [2]; [16]): < 0.1 mg/kg/day; LOAEL (rat [3]; [17]): > 7.5 mg/kg/day; NOAEL (rat [3]; [17]): ≥ 7.5 mg/kg/day; LEL (rat [3]; [15]): 0.1 mg/kg/day; NEL (rat [3]; [15]): < 0.1 mg/kg/day; LEL (rat [3]; group: parental, systemic / in life observation / body weight / body weight gain): 1 mg/kg/day; LOAEL (rat [3]; [18]): > 7.5 mg/kg/day; NEL (rat [3]; [18]): 0.1 mg/kg/day; NOAEL (rat [3]; [18]): ≥ 7.5 mg/kg/day; LEL (dog [4]): 0.01 mg/kg/day; LOAEL (dog [4]): > 0.25 mg/kg/day; NEL (dog [4]): < 0.01 mg/kg/day; NOAEL (dog [4]): ≥ 0.25 mg/kg/day; LOAEL (rat [5]; [19]): > 7.5 mg/kg/day; NOAEL (rat [5]; [19]): ≥ 7.5 mg/kg/day; LEL (rat [5]; [20]): 0.1 mg/kg/day; NEL (rat [5]; [20]): < 0.1 mg/kg/day; LEL (rabbit [6]): 0.01 mg/kg/day; LOAEL (rabbit [6]): > 0.05 mg/kg/day; NEL (rabbit [6]): < 0.01 mg/kg/day; NOAEL (rabbit [6]): ≥ 0.05 mg/kg/day; LEL (rat [7]; [21]): 7.5 mg/kg/day; LOAEL (rat [7]; [21]): 7.5 mg/kg/day; NEL (rat [7]; [21]): 2.5 mg/kg/day; NOAEL (rat [7]; [21]): 2.5 mg/kg/day; LEL (rat [7]; [22]): 0.75 mg/kg/day; LOAEL (rat [7]; [22]): > 7.5 mg/kg/day; NEL (rat [7]; [22]): < 0.75 mg/kg/day; NOAEL (rat [7]; [22]): ≥ 7.5 mg/kg/day; LEL (dog [8]): 0.01 mg/kg/day; LOAEL (dog [8]): 0.01 mg/kg/day; NEL (dog [8]): < 0.01 mg/kg/day; NOAEL (dog [8]): < 0.01 mg/kg/day; LEL (rat [9]; [23]): 7.5 mg/kg/day; LOAEL (rat [9]; [23]): > 7.5 mg/kg/day; NEL (rat [9]; [23]): 1 mg/kg/day; NOAEL (rat [9]; [23]): ≥ 7.5 mg/kg/day; LEL (rat [9]; [24]): 0.1 mg/kg/day; LOAEL (rat [9]; [24]): 0.1 mg/kg/day; NEL (rat [9]; [24]): < 0.1 mg/kg/day; NOAEL (rat [9]; [24]): < 0.1 mg/kg/day; LEL (rat [10]; [25]): 7.5 mg/kg/day; LOAEL (rat [10]; [25]): 7.5 mg/kg/day; NEL (rat [10]; [25]): 2.5 mg/kg/day; NOAEL (rat [10]; [25]): 2.5 mg/kg/day; LEL (rat [10]; [22]): 0.75 mg/kg/day; LOAEL (rat [10]; [22]): > 7.5 mg/kg/day; NEL (rat [10]; [22]): < 0.75 mg/kg/day; NOAEL (rat [10]; [22]): ≥ 7.5 mg/kg/day; LEL (rat [11]; [15]): 0.1 mg/kg/day; LOAEL (rat [11]; [15]): 0.1 mg/kg/day; NEL (rat [11]; [15]): < 0.1 mg/kg/day; NOAEL (rat [11]; [15]): < 0.1 mg/kg/day; LEL (rat [11]; [26]): 0.1 mg/kg/day; LOAEL (rat [11]; [26]): 0.1 mg/kg/day; NEL (rat [11]; [26]): < 0.1 mg/kg/day; NOAEL (rat [11]; [26]): < 0.1 mg/kg/day

Question: How did the LEL (rat [12]; [27]) turn out when `CC(O)CN(CC(C)O)CC(C)O.Nc1c(Cl)c(Cl)nc(C(=O)O)c1Cl` (configuration not stated) [Picloram triisopropanolamine salt] was run?
Answer: 550 mg/kg/day

Question: And the LOAEL (rat [12]; [27])?
Answer: 550 mg/kg/day

Question: And the NEL (rat [12]; [28])?
Answer: 90 mg/kg/day

Question: And the NOAEL (rat [12]; [28])?
Answer: 90 mg/kg/day
